# According to BindingDB's records for patent US11286268 (eFFECTOR Therapeutics, Inc., 2022):
# Target: Eukaryotic translation initiation factor 4E (Homo sapiens, UniProt P06730)
# Assay: Fluorescence Polarization Assay
# Description: eIF4E protein was pre-incubated with EDA-m7GDP-ATTO-550 in FPB at 2xconcentrations for 5 minutes prior to the addition of compounds. Compounds (100x) were prepared using 3-fold serial dilutions in 100% DMSO, and subsequently diluted 1:50 in FPB to produce 2x stocks. 50 ul of 2x eIF4E/EDA-m7GDP-ATTO-550 were transferred to the wells of a 96-well half-area black flat bottom polystyrene plate. 50 ul of 2x test compound were added, and binding reactions were allowed to equilibrate for 30 minutes at room temperature while protected from light. The fluorescent polarization signal was detected using a Victor 2 multi-label counter (Perkin Elmer) and the concentration necessary to achieve inhibition of eIF4E/EDA-m7GDP-ATTO-550 binding by 50% (IC50) was calculated using data from an 8-point compound dilution series.
# Chain of Eukaryotic translation initiation factor 4E (P06730 whole entry): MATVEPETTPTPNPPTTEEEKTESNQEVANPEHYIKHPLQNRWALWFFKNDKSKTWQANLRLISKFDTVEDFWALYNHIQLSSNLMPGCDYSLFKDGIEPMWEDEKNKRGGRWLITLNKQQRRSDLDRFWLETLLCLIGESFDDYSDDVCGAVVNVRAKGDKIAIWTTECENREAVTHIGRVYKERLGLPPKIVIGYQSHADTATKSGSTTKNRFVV
row,Structure (SMILES),IC50
1,"Cc1nc2cnc(N(C)C3CCN(CC(F)F)CC3)c(C#N)c2c(=O)n1CCOc1ccc(Cl)cc1-c1ccnc2c(C(=O)O)csc12 [US11286268, Compound 1318]",34.4 nM
2,"Cc1nc2cnc(N3CC4(C3)CN(C3CCC3)C4)c(C#N)c2c(=O)n1CCOc1ccc(Cl)cc1-c1ccnc2c(C(=O)O)csc12 [US11286268, Compound 1437]",37.3 nM
3,"Cc1nc2cnc(C(=O)C3CCN(CC(F)F)CC3)c(C#N)c2c(=O)n1CCOc1ccc(Cl)cc1-c1ccnc2c(C(=O)O)csc12 [US11286268, Compound 1440]",69 nM
4,"Cc1nc2cc(C(F)(F)F)cc(C#N)c2c(=O)n1CCOc1ccc(Cl)cc1-c1cc(C(C)C)nc2c(C(=O)O)csc12 [US11286268, Compound 1902]",84.2 nM
5,"N#Cc1ccc(OCCn2cnc3cnc(C#N)cc3c2=O)c(-c2cccc(C(=O)O)c2)c1 [US11286268, Compound 2026]",656 nM

# Compounds with a lower IC50, results first:
row,IC50,Structure (SMILES)
1,26.4 nM,"Cc1nc2cnc(N3CC4(C3)CN(C3(C)CC(F)(F)C3)C4)c(C#N)c2c(=O)n1CCOc1ccc(Cl)cc1-c1ccnc2c(C(=O)O)csc12 [US11286268, Compound 1435]"
2,12.8 nM,"Cc1nc2cnc(N3CCN(C4CC4)C(C(F)F)C3)c(C#N)c2c(=O)n1CCOc1ccc(Cl)cc1-c1ccnc2c(C(=O)O)csc12 (stereo not drawn) [US11286268, Compound 1439]"
3,10.6 nM,"Cc1nc2cnc(N(C)CC3CCN(CC(F)F)CC3)c(C#N)c2c(=O)n1CC#Cc1ccc(Cl)cc1-c1ccnc2c(C(=O)O)csc12 [US11286268, Compound 1541]"
4,2.12 nM,"Cc1nc2cnc(N(C)C3CCN(CC(C)(F)F)CC3)c(C#N)c2c(=O)n1CC#Cc1ccc(Cl)cc1-c1ccnc2c(C(=O)NS(=O)(=O)C(F)(F)F)csc12 [US11286268, Compound 1603]"
5,6.59 nM,"CCN(c1ncc2nc(C)n(CC#Cc3ccc(Cl)cc3-c3ccnc4c(C(=O)NS(=O)(=O)C5COC5)csc34)c(=O)c2c1C#N)C1CCN(CC(F)(F)C(F)F)CC1 [US11286268, Compound 1608]"
6,4.88 nM,"CCN(c1ncc2nc(C)n(CC#Cc3ccc(Cl)cc3-c3ccnc4c(C(=O)NS(=O)(=O)c5ccccn5)csc34)c(=O)c2c1C#N)C1CCN(CC(F)(F)C(F)F)CC1 [US11286268, Compound 1609]"
7,14.1 nM,"Cc1nc2cnc(NC3CC[N+](C)(CC(F)F)CC3)c(C#N)c2c(=O)n1CC#Cc1ccc(Cl)cc1-c1ccnc2c(C(=O)O)csc12 (stereo not drawn) [US11286268, Compound 1663]"
8,6.87 nM,"CCN(c1ncc2nc(C)n(CC#Cc3ccc(Cl)cc3-c3ccnc4c(C(=O)NS(=O)(=O)CF)csc34)c(=O)c2c1C#N)C1CCN(C2COC2)CC1 [US11286268, Compound 1743]"
